Patent US11098073B2, “Triphenylphosphonium-tethered tetracyclines for use in treating cancer” (Oxford University Innovation Limited, priority 2017, dated 2021)
Where a name gives a salt, the structure may show the parent alone.

System: MDA-231 cancer cells
Assay: Inhibition of proliferation assay: cell confluence (IncuCyte live cell imaging)
Type: cell-based
Conditions: compound tested at 10 μM, images every 3 h over 4-5 d, relative confluence normalised to time zero
Text: Inhibition of Proliferation Assay
The confluence value is a surrogate for cell proliferation and growth. The value is expressed as a percent confluence, which represents the fraction of culture dish-surface that is occupied by cells. As the number of cells in the dish increases over time due to proliferation, so will their coverage of that surface increase. Expansion of the cell population on the cell culture-dish surface and confluence have mostly a linear relationship until the cells on the plate surface begin to reach saturation or maximum density.
Confluence is determined based on image analysis. Image based software can identify objects in the image field base on changes to pixel density in a grey scale image. The software can then assign a mask to those pixels within the object. Objects can be ‘gated’ out based on size and shape. To determine cell confluence, images of cells are first masked as objects. The surface area of the image that is masked is measured and compared to the total surface area of the culture dish surface to obtain a percent confluence.
MDA-231 cancer cells were obtained from ATCC. Cells were cultured in Dulbecco's Modified Eagle Medium (DMEM) supplemented with 10% Fetal Bovine Serum (FBS), 2 mM Glutamax, 1 mM Non Essential Amino Acid (NEAA) solution and 1 mM sodium pyruvate. […] Final DMSO concentrations were […]. Images were acquired with an IncuCyte Live Cell Imaging microscopy (Essen Bioscience) at every 3 h under cell culture conditions with 10 OX objective over 4-5 d. Cell confluence was calculated from one field of view per well using the IncuCyte in-built algorithm. Relative confluence values were obtained by normalising each value to the time zero value in each sample.

Compound | % Confluence
C[C@H]1c2ccc(NC(=O)CCNC(=O)CCCCCCCCC[P+](c3ccccc3)(c3ccccc3)c3ccccc3)c(O)c2C(=O)C2=C(O)[C@]3(O)C(=O)C(C(N)=O)=C(O)[C@@H](N(C)C)[C@@H]3[C@@H](O)[C@@H]21 [Example 11, {9-[(2-{[(5R,5aR,6S,6aR,7S,10aS)-9-carbamoyl-7-(dimethylamino)-1,6,8,10a,11-pentahydroxy-5-methyl-10,12-dioxo-5,5a,6,6a,7,10,10a,12-octahydrotetracen-2-yl]carbamoyl}ethyl)carbamoyl]nonyl}triphenylphosphonium trifluoroacetate] | 45%
C[C@H]1c2ccc(NC(=O)CCNC(=O)CCCC[P+](c3ccccc3)(c3ccccc3)c3ccccc3)c(O)c2C(=O)C2=C(O)[C@]3(O)C(=O)C(C(N)=O)=C(O)[C@@H](N(C)C)[C@@H]3[C@@H](O)[C@@H]21 [Example 12, {4-[(2-{[(5R,5aR,6S,6aR,7S,10aS)-9-carbamoyl-7-(dimethylamino)-1,6,8,10a,11-pentahydroxy-5-methyl-10,12-dioxo-5,5a,6,6a,7,10,10a,12-octahydrotetracen-2-yl]carbamoyl}ethyl)carbamoyl]butyl}triphenylphosphonium trifluoroacetate] | 91.9%
